Results from patent US4593104A, “2-halo-N-(azole-1-yl-methyl)-substituted acetanilides” (BASF Aktiengesellschaft, priority 1976, dated 1986).

Key:
Assay in all cases: preemergence treatment in the greenhouse, % damage
[1] = test system: Glyc. max; type: in vivo, Glycine max
How it was run: (§1)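 Test species were sown separately in sandy loam and held at 25–40 °C (heat-loving) or 15–30 °C (temperate). Actives in water went onto the soil surface immediately (preemergence) or onto 3–10 cm plants (postemergence). A 0–100 scale rates emergence loss or destruction over 4–6 weeks.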

[2] = test system: Gossyp. hirs.; type: in vivo, Gosspyium hirsutum
Excerpt: The vessels employed were plastic flowerpots having a volume of 300 cm^3; the substrate was a sandy loam containing about 1.5% humus. The seeds of the test plants (see Table 1) were sown shallow, and separated according to species. In the case of Cyperus esculentus, pregerminated tubers were planted. In the preemergence treatment, the active ingredients were then immediately applied to the surface of the soil. They were suspended or emulsified in water as the vehicle, and sprayed through atomizing nozzles. After the agents had been applied, the vessels were lightly sprinkler-irrigated to set germination and growth going, and to activate the chemical agents. The vessels were then covered with transparent plastic hoods until the plants had taken root. This cover ensured uniform germination of the test plants (to the extent that this was not impaired by the chemicals), and prevented readily volatile substances from evaporating.
For postemergence treatment, the plants were first grown to a height of from 3 to 10 cm, depending on their habit, before treated. Hoods were not placed on the pots. The experiments were set up in the greenhouse, hotter areas (25° to 40° C.) being preferred for heat-loving species, and 15° to 30° C. for plants from moderate climates. The experiments were carried out for from 4 to 6 weeks. During this period the plants were tended and their reaction to the various treatments was assessed. The following tables contain the substances investigated, the application rates in kg/ha of active ingredient, and the test plant species. Assessments were made on a 0 to 100 scale, 0 denoting no damage or normal emergence, and 100 denoting no emergence or complete destruction of at least the visible plant parts.

[3] = test system: Cyp. diff.; type: in vivo
How it was run: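 Plants in humus-poor sandy loam (~1.5%) received kg/ha doses of active as aqueous spray. Preemergence sprays preceded irrigation and hooding until rooting; postemergence sprays, without hoods, hit 3–10 cm plants. Injury was assessed 0–100 across 4–6 weeks.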

[4] = test system: Panic. virg.; type: in vivo
How it was run: as §1

[5] = test system: Solanum nigrum; type: in vivo
How it was run: as §1

[6] = test system: Sida spin.; type: in vivo
How it was run: as §1

[7] = test system: Lept. spp.; type: in vivo
How it was run: as §1

[8] = test system: Echin. c.g.; type: in vivo
How it was run: as §1

[9] = test system: Ipom. spp.; type: in vivo
How it was run: as §1

[10] = test system: Cenchr. ech.; type: in vivo
How it was run: as §1

[11] = test system: Amar. retro.; type: in vivo
How it was run: as §1

## CCc1cccc(CC)c1N(COC)C(=O)CCl [bekannt, reference compound]
[1]; 0.25 kg/ha
  % damage: 0%
[1]; 0.5 kg/ha
  % damage: 0%
[1]; 1.0 kg/ha
  % damage: 0%
[1]; 2.0 kg/ha
  % damage: 0%
[2]; 0.25 kg/ha
  % damage: 0%
[2]; 0.5 kg/ha
  % damage: 6%
[2]; 1.0 kg/ha
  % damage: 20%
[2]; 2.0 kg/ha
  % damage: 45%
[3]; 0.25 kg/ha
  % damage: 65%
[3]; 0.5 kg/ha
  % damage: 70%
[3]; 1.0 kg/ha
  % damage: 78%
[3]; 2.0 kg/ha
  % damage: 100%
[4]; 0.25 kg/ha
  % damage: 30%
[4]; 0.5 kg/ha
  % damage: 45%
[4]; 1.0 kg/ha
  % damage: 92%
[4]; 2.0 kg/ha
  % damage: 100%
[5]; 0.25 kg/ha
  % damage: 50%
[5]; 0.5 kg/ha
  % damage: 73%
[5]; 1.0 kg/ha
  % damage: 90%
[5]; 2.0 kg/ha
  % damage: 90%
[6]; 1.0 kg/ha
  % damage: 10%
[6]; 2.0 kg/ha
  % damage: 70%
[7]; 0.25 kg/ha
  % damage: 100%
[7]; 0.5 kg/ha
  % damage: 100%
[7]; 1.0 kg/ha
  % damage: 100%
[7]; 2.0 kg/ha
  % damage: 100%
[8]; 0.25 kg/ha
  % damage: 45%
[8]; 0.5 kg/ha
  % damage: 75%
[8]; 1.0 kg/ha
  % damage: 90%
[8]; 2.0 kg/ha
  % damage: 95%
[9]; 1.0 kg/ha
  % damage: 20%
[9]; 2.0 kg/ha
  % damage: 30%
[10]; 0.25 kg/ha
  % damage: 92%
[10]; 0.5 kg/ha
  % damage: 95%
[10]; 1.0 kg/ha
  % damage: 100%
[10]; 2.0 kg/ha
  % damage: 100%
[11]; 0.25 kg/ha
  % damage: 68%
[11]; 0.5 kg/ha
  % damage: 81%
[11]; 1.0 kg/ha
  % damage: 88%
[11]; 2.0 kg/ha
  % damage: 92%
